# In patent US10801076B2, “Influenza A virus variants” (Vertex Pharmaceuticals Incorporated, priority 2014, dated 2020):
# System: A/Wisconsin/67/2005-p1
# Test: microbe, parasite or virus in culture
# Assay type: cell-based, influenza A virus (H3N2)
# Details: Influenza A virus, MDCK, 72 h, read-out: Sensitivity to Compound 1 (EC50)
smiles,measurement,value
O=C(O)[C@H]1C2CCC(CC2)[C@@H]1Nc1nc(-c2c[nH]c3ncc(F)cc23)ncc1F [Compound 1],EC50,2 nM
